Values quoted from earlier work in patent US20240269237A1, “PHARMACEUTICAL COMPOSITION AND KIT COMPRISING AN IMMUNOMODULATORY SUBSTANCE FOR TREATING DISEASES” (ellennbe GmbH, priority 2021, published 2024).

Columns and labels:
[1] = system: ankylosing spondylitis (Bechterew's disease); settings: for effect of earlier treatment with biologics: Patient 11, history, within half a year the biologics lost their effect; for tolerability of earlier TNF-α inhibitors: human, in vivo
rheumatoid arthritis = settings: for adverse effects of earlier treatment: Patient 7, history, regimen of MTX and upadacitinib tried a second time
perfusion of the skin = settings: healthy subjects

For adalinumab [Humira®], the “effect of earlier treatment with biologics” value [1] is listed as “little effect from the outset”.

In the case of Symponi®: TNF-α inhibitor, the “tolerability of earlier TNF-α inhibitors” value [1] is listed as “strong adverse side effects”.

In the case of golimumab [Simponi®], the “effect of earlier treatment with biologics” value [1] is given as “little effect from the outset”.

For Remicade®: TNF-α inhibitor, the “tolerability of earlier TNF-α inhibitors” value [1] is listed as “strong adverse side effects”.

For etanercept [Enbrel®], the “tolerability of earlier TNF-α inhibitors” value [1] is listed as “strong adverse side effects”.

In the case of tocilizumab, the “efficacy of basic treatment” value (rheumatoid arthritis; Patient 7, 162 mg per week) is listed as “only partially efficient”.

In the case of `CC[C@@H]1CN(C(=O)NCC(F)(F)F)C[C@@H]1c1cnc2cnc3[nH]ccc3n12` [upadacitinib], the “adverse effects of earlier treatment” value (rheumatoid arthritis) is given as “severe adverse effects (tendency to fibrosis in the lungs and sinusitis)”.

For `CN(Cc1cnc2nc(N)nc(N)c2n1)c1ccc(C(=O)N[C@@H](CCC(=O)O)C(=O)O)cc1` [MTX, methotrexate], the “adverse effects of earlier treatment” value (rheumatoid arthritis) is listed as “severe adverse effects (tendency to fibrosis in the lungs and sinusitis)”.

In the case of `COC(=O)c1cccnc1` [MN, methyl nicotinate], the perfusion response (perfusion of the skin; 50 μl of 20 mmol/l topically) is given as “reproducible perfusion response” and the “time course of perfusion increase” value (perfusion of the skin; topical application) is given as “reaches a stable plateau phase after five minutes”.
